From patent publication US20250170126A1 (MITSUBISHI TANABE PHARMA CORPORATION, priority 2022, published 2025)

These molecules were tested against Human B0AT1 (Homo sapiens (Human), UniProt Q695T7) (assay: hB0AT1 inhibitory test (phenylalanine uptake)). Conditions: Human B0AT1 stable expression CHO cells; [3H]-L-phenylalanine uptake, phenylalanine 0.25 mM.
Assay type: cell-based
Description: A test compound dissolved in dimethyl sulfoxide (DMSO) was added to a 96 well plate for solid phase radioactivity measurement containing a scintillator at the bottom of the well (final concentration of DMSO 0.5%). DMSO alone as a control and DMSO containing N-(4-bromophenyl)-3,5-dichloro-2-hydroxybenzamide (final concentration […]) for the is measurement of B0AT1 non-specific uptake were similarly added at 0.5 μL per well. Human B0AT1 stable expression CHO cells suspended in a buffer (buffer containing 96 mM sodium chloride, 2 mM potassium chloride, 1.8 mM calcium chloride, 1 mM magnesium chloride, 0.01% bovine serum albumin, and 10 mM 2-[4-(2-hydroxyethyl)-1-piperazinyl]ethanesulfonic acid) were added by 90 μL to 75000 cells/well. After standing at ordinary temperature for 30 min or longer, the cells were subjected to a phenylalanine uptake experiment. A buffer containing L-phenylalanine and [3,4,5-3H]-L-phenylalanine was added by 10 μL per well (final concentration of phenylalanine 0.25 mM), and the radioactivity of the plate bottom surface at ordinary temperature was measured with a scintillation counter over time, and the radioactivity value after 100 to 200 min was analyzed. A value obtained by subtracting the B0AT1 non-specific uptake from the control uptake was taken as 100%, and the concentration necessary for each test compound to achieve 50% inhibition (IC50 value) was determined by nonlinear regression using a logistic model.

Chain of Human B0AT1 (Q695T7 whole entry): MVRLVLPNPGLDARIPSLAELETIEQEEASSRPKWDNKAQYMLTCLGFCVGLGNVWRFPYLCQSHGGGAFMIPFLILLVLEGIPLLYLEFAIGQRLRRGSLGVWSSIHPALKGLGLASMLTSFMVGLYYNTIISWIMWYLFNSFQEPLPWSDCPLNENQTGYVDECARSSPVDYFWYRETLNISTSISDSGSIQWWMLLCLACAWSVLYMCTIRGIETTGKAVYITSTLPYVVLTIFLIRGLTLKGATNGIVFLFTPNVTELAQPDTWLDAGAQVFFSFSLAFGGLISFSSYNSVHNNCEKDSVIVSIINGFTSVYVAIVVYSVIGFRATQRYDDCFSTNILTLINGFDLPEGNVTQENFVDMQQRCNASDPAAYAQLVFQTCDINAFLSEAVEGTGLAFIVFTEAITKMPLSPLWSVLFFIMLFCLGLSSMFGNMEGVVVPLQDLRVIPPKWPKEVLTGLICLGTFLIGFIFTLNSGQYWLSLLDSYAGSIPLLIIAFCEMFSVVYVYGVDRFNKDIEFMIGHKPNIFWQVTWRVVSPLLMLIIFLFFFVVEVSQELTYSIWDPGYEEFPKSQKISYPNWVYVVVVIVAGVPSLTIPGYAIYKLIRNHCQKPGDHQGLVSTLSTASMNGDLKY

Structure (SMILES) | IC50 [nM]
O=C(/C=C/c1ccc(C(F)(F)F)cc1)NCC(=O)N1CCNC(=O)C1 [I-1, (E)-N-[2-oxo-2-(3-oxopiperazin-1-yl)ethyl]-3-[4-(trifluoromethyl)phenyl]prop-2-enamide] | 107
CN1CCN(C(=O)CNC(=O)/C=C/c2ccc(C(F)(F)F)cc2)CC1 [I-2] | 53
CN1CCCN(C(=O)CNC(=O)/C=C/c2ccc(C(F)(F)F)cc2)CC1 [I-3] | 40
COCCN(CCOC)C(=O)CNC(=O)/C=C/c1ccc(C(F)(F)F)cc1 [I-4] | 285
CCN(CCOC)C(=O)CNC(=O)/C=C/c1ccc(C(F)(F)F)cc1 [I-5] | 262
CC1CN(C(=O)CNC(=O)/C=C/c2ccc(C(F)(F)F)cc2)CCN1C (stereo not shown) [I-6] | 24
O=C(/C=C/c1ccc(C(F)(F)F)cc1)NCC(=O)N1CCS(=O)(=O)CC1 [I-9] | 1590
CCOCCN(CCOCC)C(=O)CNC(=O)/C=C/c1ccc(C(F)(F)F)cc1 [I-10] | 803
COCCN(C(=O)CNC(=O)/C=C/c1ccc(C(F)(F)F)cc1)C(C)COC (stereo not shown) [I-11] | 282
O=C(/C=C/c1ccc(C(F)(F)F)cc1)NCC(=O)N1CC(=O)NC(c2ccccc2)C1 (stereo not shown) [I-12, (E)-N-[2-oxo-2-(3-oxo-5-phenylpiperazin-1-yl)ethyl]-3-[4-(trifluoromethyl)phenyl]prop-2-enamide] | 163
CN1CCN(C(=O)CNC(=O)/C=C/c2ccc(C(F)(F)F)cc2)CC1c1ccccc1 (stereo not shown) [I-13] | 111
O=C(/C=C/c1ccc(C(F)(F)F)cc1)NCC(=O)N1CCOC(c2ccccc2)C1 (stereo not shown) [I-14] | 815
O=C(/C=C/c1ccc(C(F)(F)F)cc1)NCC(=O)N1CCNC(=O)CC1 [I-15] | 228
O=C(/C=C/c1ccc(C(F)(F)F)cc1)NCC(=O)N1CCCNC(=O)C1 [I-16] | 1750
CN1CCN(C(=O)CNC(=O)/C=C/c2ccc(C(F)(F)F)cc2)CC1=O [I-17] | 195
O=C(/C=C/c1ccc(C(F)(F)F)cc1)NCC(=O)N1CC[C@H](O)C1 [I-18] | 1660
O=C(/C=C/c1ccc(C(F)(F)F)cc1)NCC(=O)N1CCc2nncn2CC1 [I-20] | 270
O=C(/C=C/c1ccc(C(F)(F)F)cc1)NCC(=O)N1CCn2ccnc2C1 [I-21] | 65
O=C(/C=C/c1ccc(C(F)(F)F)cc1)NCC(=O)N1CCn2c(nnc2C(F)(F)F)C1 [I-22] | 214
O=C(/C=C/c1ccc(C(F)(F)F)cc1)NCC(=O)N1CCn2cncc2C1 [I-23] | 112
CC(C)N1CCN(C(=O)CNC(=O)/C=C/c2ccc(C(F)(F)F)cc2)CC1 [I-24] | 58
O=C(/C=C/c1ccc(C(F)(F)F)cc1)NCC(=O)N1CCN(CCO)CC1 [I-25] | 81
CC1CCN(C(=O)CNC(=O)/C=C/c2ccc(C(F)(F)F)cc2)CC1 [I-26] | 1440
CCOC(=O)N1CCN(C(=O)CNC(=O)/C=C/c2ccc(C(F)(F)F)cc2)CC1 [I-27] | 720
CC(=O)N1CCN(C(=O)CNC(=O)/C=C/c2ccc(C(F)(F)F)cc2)CC1 [I-28] | 978
O=C(/C=C/c1ccc(C(F)(F)F)cc1)NCC(=O)N1CNC(=O)C1 [I-31] | 106

Structure (SMILES) | IC50 [nM]
O=C(/C=C/c1ccc(C(F)(F)F)cc1)NCC(=O)N1CCN2C(=O)OC[C@H]2C1 [I-32] | 212
O=C(/C=C/c1ccc(C(F)(F)F)cc1)NCC(=O)N1CCN2C(=O)OC[C@@H]2C1 [I-33] | 319
O=C(/C=C/c1ccc(C(F)(F)F)cc1)NCC(=O)N1CCc2ncsc2C1 [I-34] | 21
O=C(/C=C/c1ccc(C(F)(F)F)cc1)NCC(=O)N1CCn2ncnc2C1 [I-35] | 51
O=C(/C=C/c1ccc(C(F)(F)F)cc1)NCC(=O)N1CCc2ccncc2C1 [I-36] | 15
O=C(/C=C/c1ccc(C(F)(F)F)cc1)NCC(=O)N1CCn2cc(C(F)(F)F)nc2C1 [I-37] | 91
O=C(/C=C/c1ccc(C(F)(F)F)cc1)NCC(=O)N1CCn2c(n[nH]c2=O)C1 [I-38] | 46
O=C(/C=C/c1ccc(C(F)(F)F)cc1)NCC(=O)N1CCc2oncc2C1 [I-39] | 29
Cn1cnc2c1CN(C(=O)CNC(=O)/C=C/c1ccc(C(F)(F)F)cc1)CC2 [I-40] | 29
O=C(/C=C/c1ccc(C(F)(F)F)cc1)NCC(=O)N1CCN2CCOCC2C1 (stereo not shown) [I-41] | 833
O=C(/C=C/c1ccc(C(F)(F)F)cc1)NCC(=O)N1CCc2cn[nH]c2C1 [I-42] | 73
O=C(/C=C/c1ccc(C(F)(F)F)cc1)NCC(=O)N1CCN2C(=O)CCC2C1 (stereo not shown) [I-43] | 80
O=C(/C=C/c1ccc(C(F)(F)F)cc1)NCC(=O)N1CCN2C(=O)NCC2C1 (stereo not shown) [I-44] | 261
CN1CCN(C(=O)CNC(=O)/C=C/c2ccc(C(F)(F)F)cc2)C(c2ccccc2)C1 (stereo not shown) [I-45] | 24
CN(CCS(C)(=O)=O)C(=O)CNC(=O)/C=C/c1ccc(C(F)(F)F)cc1 [I-46] | 181
CS(=O)(=O)[C@@H]1CCN(C(=O)CNC(=O)/C=C/c2ccc(C(F)(F)F)cc2)C1 [I-47] | 550
COCCN(CC1CCCO1)C(=O)CNC(=O)/C=C/c1ccc(C(F)(F)F)cc1 (stereo not shown) [I-48] | 536
COCCN(CC1CCOCC1)C(=O)CNC(=O)/C=C/c1ccc(C(F)(F)F)cc1 [I-49] | 775
COCCN(Cc1ccccn1)C(=O)CNC(=O)/C=C/c1ccc(C(F)(F)F)cc1 [I-50] | 81
COCCN(CCS(C)(=O)=O)C(=O)CNC(=O)/C=C/c1ccc(C(F)(F)F)cc1 [I-51] | 386
COCCN(Cc1noc(C)n1)C(=O)CNC(=O)/C=C/c1ccc(C(F)(F)F)cc1 [I-52] | 56
COCCN(Cc1cc(OC)ccn1)C(=O)CNC(=O)/C=C/c1ccc(C(F)(F)F)cc1 [I-53] | 54
COCCN(Cc1ccncn1)C(=O)CNC(=O)/C=C/c1ccc(C(F)(F)F)cc1 [I-54] | 438
COCCN(Cc1ncccc1Cl)C(=O)CNC(=O)/C=C/c1ccc(C(F)(F)F)cc1 [I-55] | 122
COCCN(Cc1ncc(C)s1)C(=O)CNC(=O)/C=C/c1ccc(C(F)(F)F)cc1 [I-56] | 67

Continued, values first:

IC50 [nM] | Structure (SMILES)
87 | O=C(/C=C/c1ccc(C(F)(F)F)cc1)NCC(=O)N1CC(=O)NC(c2ccccc2)C1 (single isomer, unassigned) [I-136, (E)-N-[2-oxo-2-[3-oxo-5-phenylpiperazin-1-yl]ethyl]-3-[4-(trifluoromethyl)phenyl]prop-2-enamide]
96 | COCCN(Cc1nc(C)c(C)s1)C(=O)CNC(=O)/C=C/c1ccc(C(F)(F)F)cc1 [I-57]
353 | COCCN(Cc1cc(C)n(C)n1)C(=O)CNC(=O)/C=C/c1ccc(C(F)(F)F)cc1 [I-58]
503 | COCCN(Cc1cccnn1)C(=O)CNC(=O)/C=C/c1ccc(C(F)(F)F)cc1 [I-59]
918 | CO[C@H]1CCN(C(=O)CNC(=O)/C=C/c2ccc(C(F)(F)F)cc2)C1 [I-60]
81 | Cc1nc2c(s1)CN(C(=O)CNC(=O)/C=C/c1ccc(C(F)(F)F)cc1)C2 [I-61]
77 | O=C(/C=C/c1ccc(C(F)(F)F)cc1)NCC(=O)N1Cc2ncsc2C1 [I-62]
164 | O=C(/C=C/c1ccc(C(F)(F)F)cc1)NCC(=O)N1Cc2nc[nH]c2C1 [I-63]
195 | O=C(/C=C/c1ccc(C(F)(F)F)cc1)NCC(=O)N1CCc2nccn2CC1 [I-64]
70 | O=C(/C=C/c1ccc(C(F)(F)F)cc1)NCC(=O)N1Cc2cccnc2C1 [I-65]
122 | Cn1ncc2c1CN(C(=O)CNC(=O)/C=C/c1ccc(C(F)(F)F)cc1)C2 [I-66]
141 | Cn1cnc2c1CN(C(=O)CNC(=O)/C=C/c1ccc(C(F)(F)F)cc1)C2 [I-67]
58 | O=C(/C=C/c1ccc(C(F)(F)F)cc1)NCC(=O)N1Cc2cncnc2C1 [I-68]
1470 | Cc1noc([C@@H]2CCN(C(=O)CNC(=O)/C=C/c3ccc(C(F)(F)F)cc3)C2)n1 [I-69]
136 | Cn1cc2c(n1)CN(C(=O)CNC(=O)/C=C/c1ccc(C(F)(F)F)cc1)C2 [I-70]
1340 | O=C(/C=C/c1ccc(C(F)(F)F)cc1)NCC(=O)N1CCC(c2cccnc2)C1 (stereo not shown) [I-71]
317 | O=C(/C=C/c1ccc(C(F)(F)F)cc1)NCC(=O)N1CCCn2ncnc2C1 [I-72]
228 | O=C(/C=C/c1ccc(C(F)(F)F)cc1)NCC(=O)N1CCC(n2cccn2)CC1 [I-73]
1310 | O=C(/C=C/c1ccc(C(F)(F)F)cc1)NCC(=O)N1CCCC(n2cccn2)C1 (stereo not shown) [I-74]
99 | O=C(/C=C/c1ccc(C(F)(F)F)cc1)NCC(=O)N1CCc2nc[nH]c2C1 [I-75]
53 | O=C(/C=C/c1ccc(C(F)(F)F)cc1)NCC(=O)N1CCc2[nH]ncc2C1 [I-76]
70 | Cn1ncc2c1CCN(C(=O)CNC(=O)/C=C/c1ccc(C(F)(F)F)cc1)C2 [I-77]
56 | O=C(/C=C/c1ccc(C(F)(F)F)cc1)NCC(=O)N1CCc2ncncc2C1 [I-78]
51 | Cn1nc2n(c1=O)CCN(C(=O)CNC(=O)/C=C/c1ccc(C(F)(F)F)cc1)C2 [I-79]
42 | O=C(/C=C/c1ccc(C(F)(F)F)cc1)NCC(=O)N1CCn2nncc2C1 [I-80]
53 | O=C(/C=C/c1ccc(C(F)(F)F)cc1)NCC(=O)N1CCc2n[nH]c(=O)cc2C1 [I-81]
64 | Cn1cc2c(n1)CCN(C(=O)CNC(=O)/C=C/c1ccc(C(F)(F)F)cc1)C2 [I-82]
78 | COCC(C)N(Cc1ccccn1)C(=O)CNC(=O)/C=C/c1ccc(C(F)(F)F)cc1 (stereo not shown) [I-83]
